In US20200024246A1, “POGOSTONE DERIVATIVES AND METHODS OF USING THE SAME” (Hamyard Associates LLC, priority 2018, published 2020):
Entries after “also recorded” stand apart in the source; their conditions may differ. Where two headings read alike, the source gives them in different places.

Assays:
[1] = tested on: adult female mosquitoes; assay: whole plant or invertebrate; details: for LD50 / mortality at 0.5 % / mortality at 1.5 %: 24 h; for LD50: read-out: 24-hour Mortality LD50 (μg/g mosquito); for pest or weed control at 0.5 % / pest or weed control at 1.5 % / mortality at 0.5 % / mortality at 1.5 %: Culicidae; for pest or weed control at 0.5 % / pest or weed control at 1.5 %: 1 h; for pest or weed control at 0.5 %: read-out: Knockdown at 0.5%; for pest or weed control at 1.5 %: read-out: Knockdown at 1.5%; for mortality at 0.5 %: read-out: Mortality at 0.5%; for mortality at 1.5 %: read-out: Mortality at 1.5%; for ranking in knockdown and mortality screenings: words; for Percent Knockdown at 1 Hour / Percent Mortality: mosquitoes; for Percent Knockdown at 1 Hour: 0.5% solutions; for Percent Mortality: 24 hours
Description: The first group of DHAA-based derivatives that were tested included Formula A2, Formula B3, Formula C3, and Formula D3. A solution of 0.5% or 1.5% of each of these compounds was applied to the mosquitoes, as described above. […] Acetone was used as a control.

[2] = tested on: house flies; assay: Knockdown and mortality of DHAA-based derivatives on house flies; format: in vivo, house fly
From the text: Accordingly, further derivatives with structures similar to Formula C3 were synthesized and tested for knockdown potential and mortality in house flies and mosquitoes using an experimental design similar to the one described above. These compounds include Formula C5, Formula C6, Formula C7, Formula C8, Formula C9, and Formula C10.

[3] = tested on: adult, female mosquitoes; assay: Topical application on adult female mosquitoes (24-h mortality, 1-h knockdown); format: in vivo, mosquito; details: for ED50: read-out: KD50 (ug/g mosquito); for LD50: read-out: LD50 (ug/g mosquito); for insecticidal properties compared with natural pogostone, natural pyrethrins or terpenoids: words, refers to Table 1
[4] = Mosquito Knockdown Properties (1 hour), topical application
[5] = Mosquito Toxicity (24 hours), topical application to pronotum

Compound: Cc1cc(O)c(C(=O)COCc2ccccc2)c(=O)o1 [Formula C7]
- Mosquito Knockdown at 0.5% concentration [1]: 10%
- Mosquito Mortality at 0.5% concentration [1]: 23%
- Mosquito Knockdown at 1.5% concentration [1]: 20%
- Mosquito Mortality at 1.5% concentration [1]: 15%
- House Fly Knockdown at 0.5% concentration [2]: 2.5%
- House Fly Mortality at 0.5% concentration [2]: 13%
- House Fly Knockdown at 1.5% concentration [2]: 1%
- House Fly Mortality at 1.5% concentration [2]: 9%

Compound: Cc1ccc(C(C)C)cc1O [Carvacrol, reference compound]
- ED50 ([3]; topical, 1 h): 2000 mg/kg
- LD50 ([3]; topical, 24 h): 3400 mg/kg
- LD50 ([1]; topical): 3400 mg/kg

Compound: CC(C)CCC(=O)c1c(O)cc(C(C)(C)C)oc1=O [Formula 11]
- ED50 [3, 4]: > 1500 mg/kg
- LD50 [3, 5]: > 1500 mg/kg

Compound: CC(C)C(=O)c1c(O)c2cc(Cl)ccc2oc1=O [Formula 34]
- ED50 [3, 4]: > 1500 mg/kg
- LD50 [3, 5]: 111 mg/kg
- insecticidal properties compared with natural pogostone, natural pyrethrins or terpenoids [3]: possessed better insecticidal properties than natural pogostone

Compound: Cc1cc(O)c(C(=O)CC(O)C2CCCCC2)c(=O)o1 (stereo not drawn) [Formula C15]
- pest or weed control at 0.5 % ([1]; topical): 23%
- pest or weed control at 1.5 % ([1]; topical): 50%
- mortality at 0.5 % ([1]; topical): 33%
- mortality at 1.5 % ([1]; topical): 63%
- ranking in knockdown and mortality screenings [1]: appear to be the most potent insecticidal compounds

Compound: Cc1ccc(C(C)C)c(O)c1 [Thymol, reference compound]
- ED50 [3, 4]: 1700 mg/kg

Compound: Cc1cc(O)c(C(=O)CCC(O)CBr)c(=O)o1 (stereo not drawn) [Formula C20]
- pest or weed control at 0.5 % ([1]; topical): 17%
- pest or weed control at 1.5 % ([1]; topical): 10%
- mortality at 0.5 % ([1]; topical): 10%
- mortality at 1.5 % ([1]; topical): 20%

Compound: CC(=O)CCC(=O)c1c(O)cc(C)oc1=O [Formula C17]
- pest or weed control at 0.5 % ([1]; topical): 27%
- pest or weed control at 1.5 % ([1]; topical): 13%
- mortality at 0.5 % ([1]; topical): 47%
- mortality at 1.5 % ([1]; topical): 7%

Compound: Cc1cc2occ(CC(C)C)c(=O)c2c(=O)o1 [Formula C22]
- pest or weed control at 0.5 % ([1]; topical): 10%
- pest or weed control at 1.5 % ([1]; topical): 10%
- mortality at 0.5 % ([1]; topical): 7%
- mortality at 1.5 % ([1]; topical): 13%

Compound: Cc1cc(O)c(C(=O)Nc2ccccc2)c(=O)o1 [Formula A3]
- Percent Knockdown at 1 Hour [1]: 4%
- Percent Mortality ([1]; at 0.5%): 5%
- Percent Mortality ([1]; at 1.5%): 19%

Compound: CCCCCCCCCC(=O)c1c(O)c2ccccc2n(C)c1=O [Formula 20]
- LD50 ([3]; topical, 24 h): > 1500 mg/kg

Compound: Cc1cc(O)c(C(=O)CSCC(=O)O)c(=O)o1 [Formula C6]
- Mosquito Knockdown at 0.5% concentration [1]: 27%
- Mosquito Mortality at 0.5% concentration [1]: 43%
- Mosquito Knockdown at 1.5% concentration [1]: 18%
- Mosquito Mortality at 1.5% concentration [1]: 15%
- House Fly Knockdown at 0.5% concentration [2]: 2.5%
- House Fly Mortality at 0.5% concentration [2]: 10%
- House Fly Knockdown at 1.5% concentration [2]: 7%
- House Fly Mortality at 1.5% concentration [2]: 6%

Compound: CC(C)CCC(=O)c1c(O)cc(-c2ccccc2)oc1=O [Formula 9]
- ED50 [3, 4]: > 1500 mg/kg
- LD50 [3, 5]: > 1500 mg/kg

Compound: Cc1ccc2oc(=O)c(C(=O)CCC(C)C)c(O)c2c1 [Formula 21]
- ED50 ([3]; topical, 1 h): > 1500 mg/kg
- LD50 ([3]; topical, 24 h): 534 mg/kg

Compound: Cc1cc(O)c(C(=O)COC(C)C)c(=O)o1 [Formula C3]
- Percent Knockdown at 1 Hour [1]: 98%
- Percent Mortality ([1]; at 0.5%): 89%
- Percent Mortality ([1]; at 1.5%): 88%
- LD50 ([1]; topical): 183 mg/kg
- ranking in knockdown and mortality screenings [1]: performed the best in terms of highest percent knockdown and mortality; also recorded: performed the best in the initial knockdown and mortality screenings

Compound: Cc1cc(O)c(C(=O)COCC(=O)O)c(=O)o1 [Formula C14]
- pest or weed control at 0.5 % ([1]; topical): 7%
- pest or weed control at 1.5 % ([1]; topical): 0%
- mortality at 0.5 % ([1]; topical): 13%
- mortality at 1.5 % ([1]; topical): 40%

Compound: C=CCCC(=O)c1cc2ccccc2oc1=O [Formula 22]
- LD50 ([3]; topical, 24 h): > 1500 mg/kg

Compound: CCCCCCCCCC(=O)c1c(O)c2ccccc2oc1=O [Formula 18]
- ED50 ([3]; topical, 1 h): > 1500 mg/kg
- LD50 ([3]; topical, 24 h): > 1500 mg/kg

Compound: CC(C)C(O)CC(=O)c1c(O)c2ccccc2oc1=O (stereo not drawn) [Formula C25]
- pest or weed control at 0.5 % ([1]; topical): 93%
- pest or weed control at 1.5 % ([1]; topical): 100%
- mortality at 0.5 % ([1]; topical): 100%
- mortality at 1.5 % ([1]; topical): 100%
- ranking in knockdown and mortality screenings [1]: appear to be the most potent insecticidal compounds

Compound: COCC(=O)c1c(O)cc(C)oc1=O [Formula C9]
- Mosquito Knockdown at 0.5% concentration [1]: 37%
- Mosquito Mortality at 0.5% concentration [1]: 73%
- Mosquito Knockdown at 1.5% concentration [1]: 53%
- Mosquito Mortality at 1.5% concentration [1]: 70%
- House Fly Knockdown at 0.5% concentration [2]: 0%
- House Fly Mortality at 0.5% concentration [2]: 5%
- House Fly Knockdown at 1.5% concentration [2]: 1%
- House Fly Mortality at 1.5% concentration [2]: 6%

Compound: Cc1cc2c(c(=O)o1)C(=O)CC(C(C)C)O2 (stereo not drawn) [Formula C16]
- pest or weed control at 0.5 % ([1]; topical): 0%
- pest or weed control at 1.5 % ([1]; topical): 7%
- mortality at 0.5 % ([1]; topical): 3%
- mortality at 1.5 % ([1]; topical): 3%

Compound: CC(=O)C1=Cc2ccccc2OC1 [Formula 16]
- LD50 ([3]; topical, 24 h): > 1500 mg/kg

Compound: CC(C)CCC(=O)C1=Cc2ccccc2OC1 [Formula 17]
- ED50 ([3]; topical, 1 h): > 1500 mg/kg
- LD50 ([3]; topical, 24 h): > 1500 mg/kg

Compound: CC(C)CCC(=O)C1C(=O)N(C)C(=O)N(C)C1=O [Formula C24]
- pest or weed control at 0.5 % ([1]; topical): 93%
- pest or weed control at 1.5 % ([1]; topical): 100%
- mortality at 0.5 % ([1]; topical): 97%
- mortality at 1.5 % ([1]; topical): 97%
- ranking in knockdown and mortality screenings [1]: appear to be the most potent insecticidal compounds

Compound: O=C(c1c(O)c2ccccc2oc1=O)C1CCC1 [Formula 27]
- ED50 ([3]; topical, 1 h): > 1500 mg/kg
- LD50 ([3]; topical, 24 h): 28.8 mg/kg
- insecticidal properties compared with natural pogostone, natural pyrethrins or terpenoids [3]: possessed better insecticidal properties at least as well as natural pyrethrins
- 1-hour Knockdown EC50 (μg/g mosquito) ([1]; in vivo): >1500 μg/g mosquito
- LD50 ([1]; topical): 29 mg/kg

Compound: Cc1cc(O)c(C(=O)/C=C/C(C)(C)C)c(=O)o1 [Formula C21]
- pest or weed control at 0.5 % ([1]; topical): 3%
- pest or weed control at 1.5 % ([1]; topical): 7%
- mortality at 0.5 % ([1]; topical): 0%
- mortality at 1.5 % ([1]; topical): 0%

Compound: CCOCC(=O)c1c(O)cc(C)oc1=O [Formula C8]
- Mosquito Knockdown at 0.5% concentration [1]: 43%
- Mosquito Mortality at 0.5% concentration [1]: 73%
- Mosquito Knockdown at 1.5% concentration [1]: 80%
- Mosquito Mortality at 1.5% concentration [1]: 80%
- 1-hour Knockdown EC50 (μg/g mosquito) ([1]; mosquito, topical, 1 hour): 661 μg/g mosquito
- LD50 ([1]; topical): 256 mg/kg
- ranking in knockdown and mortality screenings [1]: performed the best in the initial knockdown and mortality screenings
- House Fly Knockdown at 0.5% concentration [2]: 0%
- House Fly Mortality at 0.5% concentration [2]: 3%
- House Fly Knockdown at 1.5% concentration [2]: 2%
- House Fly Mortality at 1.5% concentration [2]: 13%

Compound: CCCCCCCC(=O)c1c(O)c2ccccc2oc1=O [Formula 25]
- ED50 ([3]; topical, 1 h): > 1500 mg/kg
- LD50 ([3]; topical, 24 h): > 1500 mg/kg

Compound: CC(=O)c1c(O)c2ccccc2oc1=O [Formula C27]
- pest or weed control at 0.5 % ([1]; topical): 100%
- pest or weed control at 1.5 % ([1]; topical): 73%
- mortality at 0.5 % ([1]; topical): 97%
- mortality at 1.5 % ([1]; topical): 83%

Compound: Cc1cc(O)c(C(=O)CCC=O)c(=O)o1 [Formula C18]
- pest or weed control at 0.5 % ([1]; topical): 3%
- pest or weed control at 1.5 % ([1]; topical): 0%
- mortality at 0.5 % ([1]; topical): 3%
- mortality at 1.5 % ([1]; topical): 7%

Compound: CCC(=O)c1c(O)cc(C)oc1=O [Formula 7]
- ED50 [3, 4]: > 1500 mg/kg
- LD50 [3, 5]: > 1500 mg/kg

Compound: CCOC(=O)/C(O)=C/C(=O)c1c(O)cc(C)oc1=O [Formula 8]
- ED50 [3, 4]: > 1500 mg/kg
- LD50 [3, 5]: > 1500 mg/kg

Compound: CCCCC(CC)CNC(=O)c1c(O)cc(C)oc1=O (stereo not drawn) [Formula B3]
- Percent Knockdown at 1 Hour [1]: 2%
- Percent Mortality ([1]; at 0.5%): 9%
- Percent Mortality ([1]; at 1.5%): 16%

Compound: C=CCCC(=O)c1c(O)cc(C)oc1=O [Formula C26]
- pest or weed control at 0.5 % ([1]; topical): 100%
- pest or weed control at 1.5 % ([1]; topical): 97%
- mortality at 0.5 % ([1]; topical): 100%
- mortality at 1.5 % ([1]; topical): 100%
- ranking in knockdown and mortality screenings [1]: appear to be the most potent insecticidal compounds
